Laboratory results from US5997501A, “Intradermal drug delivery device” (Elan Corporation, plc, priority 1993, dated 1999).

Experiments:
[1] = type: in vivo, New Zealand white rabbits; settings: 1000 IU/h for 5 hours from device
Excerpt: (§1) Devices manufactured according to the present invention were used to study the delivery of insulin, heparin and salmon calcitonin to New Zealand white rabbits weighing between 2.5 kg and 3.5 kg. Hair was removed from the dorsal surface of the animal using an electric clipper twenty-fours prior to application of the device. Arterial blood samples were withdrawn for determination of plasma concentration of drug through an indwelling cannula placed in the ear artery.
Delivery of heparin from devices according to the present invention was studied by administering heparin at a rate of 1000 IU/h for 5 hours. Plasma heparing was assayed using an EIA method.

blood glucose [2] = experiment: Blood glucose concentration in rabbits after intradermal device infusion of insulin (Example 1, FIG. 19); type: in vivo, rabbit; settings: for mean blood glucose concentration: control value 6.25 mmol/l
Method: A device according to the present invention containing 0.6 ml of a solution of insulin (100 I.U./ml) was affixed to each of two rabbits and the devices were switched on. The insulin solution was infused at a rate of 0.1 ml/hour for two hours. […] At one hour, mean blood glucose concentration had fallen from a control value of 6.25 mmol/l to 3.2 mmol/l. This value stayed relatively constant at 1.5 hours following activation (2.65 mmol/l) and at 2 hours (2.5 mmol/l), at which time the devices were removed.

blood glucose [3] = experiment: Whole blood glucose concentration (Ames glucometer) in rabbits during device delivery of insulin (Example 3); type: in vivo, New Zealand white rabbits; settings: normal and diabetic animals; 5 IU/h
Excerpt: as §1
(§2) Diabetes was induced in test rabbits by administration intravenously of a 150 mg/kg dose of alloxan (monohydrate) to fasted rabbits. The rabbits were provided with a dextrose solution for three days after alloxan administration and after this time normal diet was resumed. Test animals were maintained healthy with a commercial insulin preparation prior to the study. The devices were attached to the rabbits and delivery of insulin at a rate of 5 IU/h was commenced to normoglycaemic animals (for 3 hours) and to diabetic animals (for 3.25 hours). Whole blood glucose concentrations were measured using an Ames glucometer and plasma insulin concentration were measured using a RIA method.

[4] = Plasma insulin concentration (RIA) in rabbits during device delivery of insulin (Example 3); type: in vivo, New Zealand white rabbits; settings: 5 IU/h, time=3h
Excerpt: as §1, §2

serum calcium = experiment: Serum calcium concentration in rabbits after intradermal device infusion of salmon calcitonin (Example 2, FIG. 20); type: in vivo, rabbit; settings: for mean serum calcium concentration, % of control value: 1.0 mg/ml at 0.1 ml/hour for 6 hours, four rabbits
Method: A device according to the present invention containing 0.6 ml of a solution of salmon calcitonin (1.0 mg/ml) was affixed to each of four rabbits. This solution was infused at the rate of 0.1 ml/hour for 6 hours. Serum calcium concentrations were measured via an ear vein at 0, 0.5, 1, 2, 3, 4, 5 and 6 hours following activation of the device, at which point the device was removed.

[5] = Delivery of calcitonin from device compared with conventional subcutaneous injection (plasma calcitonin by EIA, plasma calcium by photometric analysis); type: in vivo, New Zealand white rabbits
Excerpt: as §1
To compare delivery of calcitonin using devices according to the present invention to conventional delivery, 40 IU calcitonin was delivered to a rabbit over 2 hours from a device according to the present invention and 20 IU calcitonin was delivered by a conventional single subcutaneous injection. In a further study, calcitonin was delivered at a rate of 25 IU/h and 100 IU/h for a period of 6 hours from devices according to the present invention. Plasma concentrations of calcium were measured using a photometric analysis while calcitonin concentrations were measured by an EIA method.

heparin
amounts of heparin delivered [1]: significant anticoagulant amounts

insulin: solution of insulin (100 I.U./ml)
mean blood glucose concentration (blood glucose [2]; 1 hour following activation, 100 I.U./ml at 0.1 ml/hour, two rabbits): 3.2 mmol/L
mean blood glucose concentration (blood glucose [2]; 1.5 hours following activation, 100 I.U./ml at 0.1 ml/hour): 2.65 mmol/L
mean blood glucose concentration (blood glucose [2]; 2 hours following activation (devices removed), 100 I.U./ml at 0.1 ml/hour): 2.5 mmol/L
mean blood glucose, course after device removal (blood glucose [2]; later than one hour after device removal): continued to rise with time
mean blood glucose concentration (blood glucose [2]; one hour after device removal): 3.7 mmol/L
blood glucose concentration, change (blood glucose [3]): corresponding decrease in blood glucose concentration was observed for both normal and diabetic animals
plasma insulin concentration ([4]; diabetic (alloxan) rabbits, approximately 10 fmol/ml at time 0): approximately 240 fmol/ml
plasma insulin concentration ([4]; normal (normoglycaemic) rabbits, approximately 25 fmol/ml at time 0): approximately 275 fmol/ml

salmon calcitonin
mean calcium concentrations, course (serum calcium; 0 to 6 hours, 0.1 ml/hour): fell steadily throughout the period of application
mean serum calcium concentration, % of control value (serum calcium; 5 hours following activation): 62.5%
mean serum calcium concentration, % of control value (serum calcium; 6 hours following activation): 66.6%
delivery of calcitonin, dose proportionality ([5]; 25 IU/h and 100 IU/h for 6 hours from devices): dose proportional
delivery of calcitonin compared with conventional routes ([5]; 40 IU over 2 hours from device vs 20 IU single subcutaneous injection): comparable to that from conventional routes
